From US20210253518A1, “KINASE INHIBITOR” (NISSAN CHEMICAL CORPORATION, priority 2018, published 2021) come the findings set out here.

Common to all, as to assay: Off-chip Mobility Shift Assay (MSA method), kinase inhibition
What all share (format): biochemical

The target of one assay is T1, SGK3 (Homo sapiens, UniProt Q96BR1).
T1 sequence (Q96BR1 1-496): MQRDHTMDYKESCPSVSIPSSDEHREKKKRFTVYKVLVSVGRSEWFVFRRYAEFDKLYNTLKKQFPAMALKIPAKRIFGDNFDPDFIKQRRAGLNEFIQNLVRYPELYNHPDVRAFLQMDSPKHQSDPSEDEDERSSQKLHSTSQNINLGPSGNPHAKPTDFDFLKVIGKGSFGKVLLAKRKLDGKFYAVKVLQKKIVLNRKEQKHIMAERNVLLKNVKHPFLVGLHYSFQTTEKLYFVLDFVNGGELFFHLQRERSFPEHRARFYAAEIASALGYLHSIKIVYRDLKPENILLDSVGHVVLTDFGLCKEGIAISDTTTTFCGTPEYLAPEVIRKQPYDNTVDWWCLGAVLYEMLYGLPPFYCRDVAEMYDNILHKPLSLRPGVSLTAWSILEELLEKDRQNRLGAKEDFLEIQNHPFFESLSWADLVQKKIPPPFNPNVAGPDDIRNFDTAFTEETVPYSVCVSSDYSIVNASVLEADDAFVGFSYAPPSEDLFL
The settings on record: for inhibition at 0.1 µM: read-out: inhibition (%) SGK3. On the procedure: (§1) For compound k-1:B-1, inhibitory activity evaluation (calculation of 50% inhibitory concentration (IC50)) was performed on 8 kinds of kinases (CGK2, LATS2, MSK1, p70S6K, PKACα, PKACβ, SGK2, SGK3). The activity was measured using the Off-chip Mobility Shift Assay (MSA method) described below. The compound was added such that the test concentration of k-1:B-1 was in 10 steps from the final concentration of 10 μM to 0.3 nM.
(§2) As an analysis method of the data, the mean signal of the control well containing all reaction components was set to 0% inhibition, the mean signal without enzyme addition was set to 100% inhibition, and the inhibition rate was calculated from the mean signal of 2 wells of each test substance test. The IC50 value was obtained by approximating a plot based on the test substance concentration and inhibition rate to a 4 parameter logistics curve by using the Excel Solver add-in and by the non-linear least squares method.
(§3) 5 μL of k-1:B-1 solution at 4-fold concentration, 5 μL of substrate/ATP/metal solution at 4-fold concentration, and 10 μL of kinase solution at 2-fold concentration, each prepared with assay buffer (20 mM HEPES, 0.01% Triton X-100, 2 mM DTT, pH 7.5), were mixed in the wells of a polypropylene 384-well plate and reacted at room temperature for 1 or 5 hr. Successively, 70 μL of Termination Buffer (QuickScout Screening Assist MSA; Carna Biosciences) was added to discontinue the reaction. Then, the substrate peptide and the phosphorylated peptide in the reaction solution were separated and quantified by the LabChip system (Perkin Elmer). The kinase reaction was evaluated by the resultant product ratio (P/(P+S)) calculated from the substrate peptide peak height (S) and the phosphorylated peptide peak height (P).
(§4) For compounds k-1:H-7, k-1:H-1, k-1:D-1, k-1:J-1, and k-1:B-1, inhibitory rate at 100 nM was calculated on 8 kinds of kinases (CGK2, LATS2, MSK1, p70S6K, PKACα, PKACβ, SGK2, SGK3). The activity was measured using the MSA method. As an analysis method of the data, the mean signal of the control well containing all reaction components was set to 0% inhibition, the mean signal without enzyme addition was set to 100% inhibition, and the inhibition rate was calculated from the mean signal of 2 wells of each test substance test.
as §3, with “a compound” for “k-1:B-1”

A further assay concerns the target PKACα (Homo sapiens, UniProt P17612). The settings on record: for inhibition at 0.1 µM: read-out: inhibition (%) PKACα. On the procedure:
as §1, §2, §3, §4
as §3, with “a compound” for “k-1:B-1”

For a further assay, the target named is PKACβ (Homo sapiens, UniProt P22694). The settings on record: for inhibition at 0.1 µM: read-out: inhibition (%) PKACβ. On the procedure:
as §1, §2, §3, §4
as §3, with “a compound” for “k-1:B-1”

In a further assay the target is T2, SGK2 (Homo sapiens, UniProt Q9HBY8).
T2 sequence (Q9HBY8 1-367): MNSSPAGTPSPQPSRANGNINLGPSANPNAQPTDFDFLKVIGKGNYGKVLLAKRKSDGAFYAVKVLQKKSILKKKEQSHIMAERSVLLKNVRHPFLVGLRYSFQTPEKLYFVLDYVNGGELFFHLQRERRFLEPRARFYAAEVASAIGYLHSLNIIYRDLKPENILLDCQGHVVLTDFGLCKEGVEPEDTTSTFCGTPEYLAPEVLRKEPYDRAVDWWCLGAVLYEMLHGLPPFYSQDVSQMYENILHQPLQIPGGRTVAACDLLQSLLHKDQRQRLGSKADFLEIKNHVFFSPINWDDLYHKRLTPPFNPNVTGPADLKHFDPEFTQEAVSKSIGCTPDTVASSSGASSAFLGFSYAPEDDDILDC
The settings on record: for inhibition at 0.1 µM: read-out: inhibition (%) SGK2. On the procedure:
as §1, §2, §3, §4
as §3, with “a compound” for “k-1:B-1”

Where [1] appears, read: MSA method, 10 steps from 10 μM to 0.3 nM.

pIC50: −log10 of the molar value. Like-named read-outs stand apart in the source and are kept apart here.

As to `CCC(=NNC(=O)CNc1ccccc1)c1ccc(O)c(C)c1O` [k-1:H-1], the inhibition at 0.1 µM at SGK3 (at 100 nM, MSA method) worked out at 73.7%; at PKACα (at 100 nM, MSA method), 92.1%; on PKACβ (at 100 nM, MSA method), 87.7%; on SGK2 (at 100 nM, MSA method), 93.6%.
With `CC/C(=N\NC(=O)C(C)Nc1ccccc1)c1ccc(O)c(C)c1O` (stereo not drawn) [k-1:B-1], the pIC50 was 7.20 at SGK3 (setting [1]), 7.63 at PKACα (setting [1]), 7.53 at PKACβ (setting [1]) and 7.88 on SGK2 (setting [1]). Moreover, the inhibition at 0.1 µM at SGK3 (at 100 nM, MSA method) was 65.9%; on PKACα (at 100 nM, MSA method), 82.8%; on PKACβ (at 100 nM, MSA method), 80.1%; on SGK2 (at 100 nM, MSA method), 87.3%.
With `CC/C(=N\NC(=O)NCc1cccc(O)c1)c1ccc(O)c(C)c1O` [k-1:J-1], the inhibition at 0.1 µM stood at 82.5% on SGK3, 94% at PKACα, 89.7% on PKACβ and 95.1% on SGK2.
In the same order, the values of `CC/C(=N\NC(=O)CNc1cccc(O)c1)c1ccc(O)c(C)c1O` [k-1:D-1] are 93.6%, 99.7%, 98.5% and 99.9%.
Regarding `CCC(=NNC(=O)C(CC)Nc1ccccc1)c1ccc(O)c(C)c1O` (stereo not drawn) [k-1:H-7], the inhibition at 0.1 µM amounted to 44.4% on SGK3 (at 100 nM, MSA method); 77.7% at PKACα (at 100 nM, MSA method); 72% at PKACβ (at 100 nM, MSA method); 84.3% at SGK2 (at 100 nM, MSA method).
